Read-outs that look alike come from different tables or passages of the source.
System: HCV replicon in HUH-7 cells
Test: HCV replicon FRET assay
Type: cell-based, HCV strain 1b
Details: Hepatitis C virus
From the text: An HCV replicon whole cell system was established as described by Lohmann V, Korner F, Koch J, Herian U, Theilmann L, Bartenschlager R., Science 285(5424):110-3 (1999). This system enabled us to evaluate the effects of our HCV Protease compounds on HCV RNA replication. Briefly, using the HCV strain 1b sequence described in the Lohmann paper (Assession number: AJ238799), an HCV cDNA was synthesized by Operon Technologies, Inc. (Alameda, Calif.), and the full-length replicon was then assembled in plasmid pGem9zf(+) (Promega, Madison, Wis.) using standard molecular biology techniques. The replicon consists of (i) the HCV 5′ UTR fused to the first 12 amino acids of the capsid protein, (ii) the neomycin phosphotransferase gene (neo), (iii) the IRES from encephalomyocarditis virus (EMCV), and (iv) HCV NS3 to NS5B genes and the HCV 3′ UTR. Plasmid DNAs were linearized with ScaI and RNA transcripts were synthesized in vitro using the T7 MegaScript transcription kit (Ambion, Austin, Tex.) according to manufacturer's directions. In vitro transcripts of the cDNA were transfected into the human hepatoma cell line, HUH-7. […] Resulting cell lines were characterized for positive and negative strand RNA production and protein production over time.
The HCV replicon FRET assay was developed to monitor the inhibitory effects of compounds described in the disclosure on HCV viral replication. HUH-7 cells, constitutively expressing the HCV replicon, were grown in Dulbecco's Modified Eagle Media (DMEM) (Gibco-BRL) containing 10% Fetal calf serum (FCS) (Sigma) and 1 mg/ml G418 (Gibco-BRL). Cells were seeded the night before (1.5×10^4 cells/well) in 96-well tissue-culture sterile plates. Compound and no compound controls were prepared in DMEM containing 4% FCS, 1:100 Penicillin/Streptomysin (Gibco-BRL), 1:100 L-glutamine and 5% DMSO in the dilution plate (0.5% DMSO final concentration in the assay). Compound/DMSO mixes were added to the cells and incubated for 4 days at 37° C. After 4 days, cells were first assessed for cytotoxicity using alamar Blue (Trek Diagnotstic Systems) for a CC50 reading. The toxicity of compound (CC50) was determined by adding 1/10th volume of alamar Blue to the media incubating the cells. After 4 hours, the fluorescence signal from each well was read, with an excitation wavelength at 530 nm and an emission wavelength of 580 nm, using the Cytofluor Series 4000 (Perspective Biosystems). Plates were then rinsed thoroughly with Phosphate-Buffered Saline (PBS) (3 times 150 μl). The cells were lysed with 25 μl of a lysis assay reagent containing an HCV protease substrate (5× cell Luciferase cell culture lysis reagent (Promega #El 53A) diluted to 1× with distilled water, NaCl added to 150 mM final, the FRET peptide substrate (as described for the enzyme assay above) diluted to 10 μM final from a 2 mM stock in 100% DMSO. […]. The plate was then placed into the Cytofluor 4000 instrument which had been set to 340 nm excitation/490 nm emission, automatic mode for 21 cycles and the plate read in a kinetic mode. EC50 determinations were carried out as described for the IC50 determinations.

COc1c(O[C@@H]2C[C@H]3C(=O)N[C@]4(C(=O)NS(=O)(=O)C5CC5)C[C@H]4/C=C\CCCCC[C@H](NC(=O)OC(C)(C)C)C(=O)N3C2)ccc2c(Cl)nccc12 [Compound 3]
EC50 (96 h, HUH-7 replicon cells, 4 days, read-out: EC50 value in the replicon FRET assay): 14.6 nM | EC50 (Huh-7, HCV replicon, read-out: EC50 Activity Range): < 100 nM
